Reference: ChEMBL document CHEMBL1146831, “Binding of a homologous series of anthraquinones to DNA” (Bioorg Med Chem Lett, 2004)

Experiments:
Nucleic Acid [1] = assay: Binding constant towards GC-rich calf thymus DNA hairpin; format: nucleic-acid assay; settings: Bos taurus
Nucleic Acid [2] = assay: Binding constant towards AT-rich calf thymus DNA hairpin; format: nucleic-acid assay; settings: Bos taurus

COCCOCCOCCOCCCNCCC(=O)Nc1ccc2c(c1)C(=O)c1ccc(NC(=O)CCNCCCOCCOCCOCCOC)cc1C2=O
K (Nucleic Acid [1]): 90000 M⁻¹ | K (Nucleic Acid [2]): 190000 M⁻¹

COCCOCCOCCCNCCC(=O)Nc1ccc2c(c1)C(=O)c1ccc(NC(=O)CCNCCCOCCOCCOC)cc1C2=O
K (Nucleic Acid [1]): 110000 M⁻¹ | K (Nucleic Acid [2]): 250000 M⁻¹

COCCCNCCC(=O)Nc1ccc2c(c1)C(=O)c1ccc(NC(=O)CCNCCCOC)cc1C2=O
K (Nucleic Acid [1]): 310000 M⁻¹ | K (Nucleic Acid [2]): 760000 M⁻¹

COCCOCCCNCCC(=O)Nc1ccc2c(c1)C(=O)c1ccc(NC(=O)CCNCCCOCCOC)cc1C2=O
K (Nucleic Acid [1]): 220000 M⁻¹ | K (Nucleic Acid [2]): 550000 M⁻¹
